Activity calls are given as the source filed them. No cut-off for these calls is given here.
Columns and labels:
A549 = assay: Antiproliferative activity against human A549 cells assessed as reduction in cell viability by MTS assay; format: functional, cell-based
HCT-116 = assay: Antiproliferative activity against human HCT116 cells assessed as reduction in cell viability by MTS assay; format: functional, cell-based
MCF7 = assay: Antiproliferative activity against human MCF7 cells assessed as reduction in cell viability by MTS assay; format: functional, cell-based
T-24 = assay: Induction of autophagy in human T24 cells assessed as increase in ratio of LC3-2 to total Erk1/2 protein level at 0.5 uM after 12 hrs by Western blot analysis; format: functional, cell-based
HepG2 [1] = assay: Induction of autophagy in human HepG2 cells assessed as ratio of LC3-2 to total Erk1/2 protein level at 0.5 uM after 4 hrs by Western blot analysis (reference value: 1); format: functional
HepG2 [2] = assay: Induction of autophagy in human HepG2 cells assessed as ratio of LC3-2 to total Erk1/2 protein level at 0.5 uM after 12 hrs by Western blot analysis (reference value: 1); format: functional
HepG2 [3] = assay: Induction of autophagy in human HepG2 cells assessed as ratio of LC3-2 to total Erk1/2 protein level at 0.5 uM after 12 hrs in presence of CQ by Western blot analysis (reference value: 3.9); format: functional
[4] = target: Serine/threonine-protein kinase mTOR (Homo sapiens) (UniProt P42345); assay: Inhibition of mTOR phosphorylation at S2448 residue in human HepG2 cells assessed as ratio of phosphorylated mTOR to total mTOR level at 0.25 uM after 4 hrs by Western blot analysis (reference value: 1); format: cell-based
[5] = target: Serine/threonine-protein kinase mTOR (Homo sapiens) (UniProt P42345); assay: Inhibition of mTOR phosphorylation at S2448 residue in human HepG2 cells assessed as ratio of phosphorylated mTOR to total mTOR level at 0.5 uM after 4 hrs by Western blot analysis (reference value: 1); format: cell-based
[6] = target: Serine/threonine-protein kinase mTOR (Homo sapiens) (UniProt P42345); assay: Inhibition of mTOR phosphorylation at S2448 residue in human HepG2 cells assessed as ratio of phosphorylated mTOR to total mTOR level at 1 uM after 4 hrs by Western blot analysis (reference value: 1); format: cell-based
[7] = target: Serine/threonine-protein kinase mTOR (Homo sapiens) (UniProt P42345); assay: Inhibition of mTOR phosphorylation at S2448 residue in human HepG2 cells assessed as ratio of phosphorylated mTOR to total ERK level at 0.05 uM after 4 hrs by Western blot analysis (reference value: 1); format: cell-based
[8] = target: Serine/threonine-protein kinase mTOR (Homo sapiens) (UniProt P42345); assay: Inhibition of mTOR phosphorylation at S2448 residue in human HepG2 cells assessed as ratio of phosphorylated mTOR to total ERK level at 0.1 uM after 4 hrs by Western blot analysis (reference value: 1); format: cell-based
[9] = target: Serine/threonine-protein kinase mTOR (Homo sapiens) (UniProt P42345); assay: Inhibition of mTOR phosphorylation at S2448 residue in human HepG2 cells assessed as ratio of phosphorylated mTOR to total ERK level at 1 uM after 4 hrs by Western blot analysis (reference value: 1); format: cell-based
[10] = target: RAC-alpha serine/threonine-protein kinase (Homo sapiens) (UniProt P31749); assay: Inhibition of AKT phosphorylation at S473 residue in human HepG2 cells assessed as ratio of phosphorylated Akt to total ERK level at 0.5 uM after 4 hrs by Western blot analysis (reference value: 1); format: cell-based
Chain of RAC-alpha serine/threonine-protein kinase (Homo sapiens) (P31749 whole entry): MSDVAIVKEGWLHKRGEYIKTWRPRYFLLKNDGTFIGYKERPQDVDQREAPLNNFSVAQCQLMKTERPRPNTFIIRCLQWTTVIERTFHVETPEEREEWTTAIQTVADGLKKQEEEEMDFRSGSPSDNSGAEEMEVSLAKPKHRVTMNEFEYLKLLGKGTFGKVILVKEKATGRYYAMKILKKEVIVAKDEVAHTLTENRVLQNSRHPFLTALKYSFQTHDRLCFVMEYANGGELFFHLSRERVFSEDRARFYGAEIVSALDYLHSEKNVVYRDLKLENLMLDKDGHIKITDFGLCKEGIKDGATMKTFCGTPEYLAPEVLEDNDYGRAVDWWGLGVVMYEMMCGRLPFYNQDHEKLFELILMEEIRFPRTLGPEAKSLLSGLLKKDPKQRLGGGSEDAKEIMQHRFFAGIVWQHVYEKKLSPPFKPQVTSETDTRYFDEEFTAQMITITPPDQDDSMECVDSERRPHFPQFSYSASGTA

HepG2 [11] = assay: Activation of AMPKalpha in human HepG2 cells assessed as ratio of phosphorylated AMPKalpha at T172 residue to total ERK level at 0.5 uM incubated for 4 hrs by Western blot analysis (reference value: 1); format: cell-based
HepG2 [12] = assay: Induction of autophagy in human HepG2 cells assessed as ratio of LC3-2 level to total Erk1/2 protein level at 0.5 uM after 4 hrs in presence of CC and CQ by Western blot analysis (reference value: 2.4); format: functional
HepG2 [13] = assay: Induction of autophagy in human HepG2 cells assessed as ratio of LC3-2 level to total Erk1/2 protein level at 0.5 uM after 4 hrs in presence of CC and CQ by Western blot analysis relative to CC; format: functional
HepG2 [14] = assay: Activation of AMPKalpha in human HepG2 cells assessed as ratio of phosphorylated AMPKalpha at T172 residue to total ERK level at 0.5 uM incubated for 4 hrs in presence of CC by Western blot analysis (reference value: 1); format: cell-based
HepG2 [15] = assay: Activation of AMPKalpha in human HepG2 cells assessed as ratio of phosphorylated AMPKalpha at T172 residue to total ERK level at 0.5 uM incubated for 4 hrs in presence of CC by Western blot analysis relative to CC; format: cell-based
HepG2 [16] = assay: Activation of AMPKalpha in human HepG2 cells assessed as ratio of phosphorylated ACCalpha at S79 residue to total ERK level at 0.5 uM incubated for 4 hrs in presence of CC by Western blot analysis relative to CC; format: cell-based
HepG2 [17] = assay: Induction of autophagy in human HepG2 cells assessed as ratio of HK2 expression to total ERK level after 2 hrs by Western blot analysis (reference value: 1); format: functional
HepG2 [18] = assay: Induction of autophagy in human HepG2 cells assessed as ratio of LC3-2 level to total ERK level at 0.5 uM after 2 hrs in presence of 2-DG and CQ by Western blot analysis (reference value: 3.9); format: functional
HepG2 [19] = assay: Induction of autophagy in human HepG2 cells ratio of LC3-2 level to total ERK level at 0.5 uM after 2 hrs in presence of CQ by Western blot analysis relative to CQ; format: functional
HepG2 [20] = assay: Induction of autophagy in human HepG2 cells assessed as ratio of LC3-2 level to total ERK level at 0.5 uM after 2 hrs in presence of PFK15 by Western blot analysis (reference value: 1.1); format: functional
HepG2 [21] = assay: Induction of autophagy in human HepG2 cells assessed as ratio of LC3-2 level to total ERK level at 0.5 uM after 2 hrs in presence of PFK15 and CQ by Western blot analysis (reference value: 1.1); format: functional
HepG2 [22] = assay: Induction of autophagy in human HepG2 cells assessed as ratio of LC3-2 level to total ERK level at 0.5 uM after 2 hrs in presence of PFK15 and CQ by Western blot analysis relative to PFK15; format: functional
HepG2 [23] = assay: Induction of autophagy in human HepG2 cells assessed as ratio of LC3-2 level to total ERK level at 0.5 uM after 2 hrs in presence of PFKFB3 siRNA and CQ by Western blot analysis (reference value: 0.8); format: functional
HepG2 [24] = assay: Induction of autophagy in human HepG2 cells assessed as ratio of LC3-2 level to total ERK level at 0.5 uM after 2 hrs in presence of HK2 siRNA by Western blot analysis (reference value: 3.1); format: functional
HepG2 [25] = assay: Induction of autophagy in human HepG2 cells assessed as ratio of LC3-2 level to total ERK level at 0.5 uM after 2 hrs in presence of HK2 siRNA and CQ by Western blot analysis (reference value: 3.1); format: functional
HepG2 [26] = assay: Induction of autophagy in human HepG2 cells assessed as ratio of LC3-2 level to total ERK level at 0.5 uM after 2 hrs in presence of HK2 siRNA and CQ by Western blot analysis relative to HK2 siRNA; format: functional

Row | SMILES | Activity (A549) | Activity (HCT-116) | Activity (MCF7) | Activity (T-24) | Ratio (HepG2 [1]) | Ratio (HepG2 [2]) | Ratio (HepG2 [3]) | Ratio [4] | Ratio [5] | Ratio [6] | Ratio [7] | Ratio [8] | Ratio [9] | Ratio [10] | Ratio (HepG2 [11]) | Ratio (HepG2 [12]) | fold change (FC) (HepG2 [13]) | Ratio (HepG2 [14]) | fold change (FC) (HepG2 [15]) | fold change (FC) (HepG2 [16]) | also measured
1 | CC[C@@]12SS[C@]3(C(=O)N1C)[C@@H](O)C1(C45c6ccccc6N[C@@H]4N4C(=O)[C@]6([C@@H](C)O)SS[C@]4(C(=O)N6C)[C@H]5O)c4ccccc4N[C@@H]1N3C2=O (stereo not given in full) | Active | Active | Active | Active | 1.2 | 1.3 | 4.2 | 1.4 | 1.8 | 1.8 | 1 | 0.9 | 1 | 1.2 | 1.2 | 0.9 | 0.9 | 0.9 | 0.8 | 0.7 | Ratio (HepG2 [17]): 0.8; Ratio (HepG2 [18]): 3.7; fold change (FC) (HepG2 [19]): 2.1; Ratio (HepG2 [20]): 1.3; Ratio (HepG2 [21]): 4.4; fold change (FC) (HepG2 [22]): 3.4; Ratio (HepG2 [23]): 4.3; Ratio (HepG2 [24]): 1.6; Ratio (HepG2 [25]): 4.7; fold change (FC) (HepG2 [26]): 2.8
2 | CCC1(SC)C(=O)N2[C@H]3N(C)c4ccccc4C3(C34c5ccccc5N(C)[C@@H]3N3C(=O)C(SC)([C@@H](C)O)N(C)C(=O)C3(SC)[C@H]4O)[C@H](O)C2(SC)C(=O)N1C (stereo not given in full) | Active | Active | Active | Active | 1.1 | 1.2 | 4.4 | 2.2 | 2.2 | 2.2 | 1 | 1 | 0.9 | 1.1 | 1.4 | 0.9 | 1.3 | 0.9 | 0.6 | 0.7 | Ratio (HepG2 [17]): 0.6; Ratio (HepG2 [18]): 3.7; fold change (FC) (HepG2 [19]): 2.2; Ratio (HepG2 [20]): 1.6; Ratio (HepG2 [21]): 3.9; fold change (FC) (HepG2 [22]): 2.4; Ratio (HepG2 [23]): 4.6; Ratio (HepG2 [24]): 1.1; Ratio (HepG2 [25]): 7.2; fold change (FC) (HepG2 [26]): 6.6
